Experimental data taken from patent US7772228B2, “Method for treatment of bacterial infections with once or twice-weekly administered rifalazil” (priority 1998, dated 2010).
In brackets after ≈: the same amount, converted by molar mass. Like-named read-outs stand apart in the source and are kept apart here.

Legend:
M. tuberculosis [1] = experiment: Clinical trial 005, change in Log10 CFU/mL of sputum of tuberculosis patients; assay type: in vivo, human; conditions: INH 400 mg daily, N 6
Method: Dosages of isoniazid and rifampin were adjusted to body weight of patients. […] When the patient's body weight was greater than 45 kg, isoniazid was administered as 600 mg/dose.
(§1) Definite diagnosis and evaluation of treatment efficacy requires direct examination of sputum for the presence of M. tuberculosis. The extent of M. tuberculosis infection is determined by number of bacteria able to form colonies and is expressed as colony forming units. When the number of colony forming units (CFU) is high, the infection is unhindered. When the CFU decreases, the number of active M. tuberculosis bacteria decreases. The CFU, typically expressed as Log10, have therefore important diagnostic and treatment evaluative value.
Dosages of isoniazid and rifampin depended on the patient's weight and were as above. The number of patients in each study group are presented as the N value.
(§2) The overall clinical studies and conditions were similar to those described in Example 1. Due to ethical considerations, there were no placebo (control) patients in this study. […] Both latest regimens were experimental and performed under IND permit from FDA.

[2] = Clinical trial 005, WBC, ANC and platelet counts in tuberculosis patients; assay type: in vivo, human; conditions: INH daily
Method: as §1
The four tables 17-20 show hematology data which are separated according to Groups 1-4. The group treatment corresponds to those seen in Table 16. […] In particular, the ANC value is considered to be a very meaningful safety index as it directly relates to a patient's ability to fight infection.
as §2

[3] = test system: M. tuberculosis strain Erdman; conditions: cited from earlier work; for reduction of bacterial load in lungs and spleens, comparison of drugs: 20 mg/kg, five times per week for four weeks
[4] = test system: extracellular M. tuberculosis; conditions: cited from earlier work
M. tuberculosis [5] = conditions: BACTEC, cited from earlier work; for MIC50 50% inhibition / MIC90 90% inhibition: thirty clinical isolates
[6] = test system: M. tuberculosis in human macrophages; conditions: intracellular, cited from earlier work
M. tuberculosis [7] = conditions: 22 strains, agar dilution; cited from earlier work
M. avium = conditions: 18 strains, agar dilution; cited from earlier work
[8] = in vivo; cited from earlier work
Helicobacter pylori = test system: Helicobacter pylori; set-up: unit of the concentration uncertain; conditions: time-kill, broth medium, 0.31 (unit uncertain); cited from earlier work

NNC(=O)c1ccncc1 [INH, isoniazid]
Change from Sputum Baseline to Day 15, Max (M. tuberculosis [1]): −0.92 Log10 CFU/mL | Change from Sputum Baseline to Day 15, Mean (SD) (M. tuberculosis [1]): −1.58 Log10 CFU/mL | Change from Sputum Baseline to Day 15, Med (M. tuberculosis [1]): −1.63 Log10 CFU/mL | Change from Sputum Baseline to Day 15, Min (M. tuberculosis [1]): −2.23 Log10 CFU/mL | ANC Max ([2]; Day 4): 22.51 K/CU MM | ANC Mean (SD) ([2]; Day 4): 7.62 K/CU MM | ANC Med ([2]; Day 4): 5.47 K/CU MM | ANC Min ([2]; Day 4): 3.79 K/CU MM | Platelets Max ([2]; Day 4): 431.70 K/CU MM | Platelets Mean (SD) ([2]; Day 4): 309.38 K/CU MM | Platelets Med ([2]; Day 4): 305.56 K/CU MM | Platelets Min ([2]; Day 4): 153.70 K/CU MM | WBC Max ([2]; Day 4): 27.19 K/CU MM | WBC Mean (SD) ([2]; Day 4): 10.88 K/CU MM | WBC Med ([2]; Day 4): 8.81 K/CU MM | WBC Min ([2]; Day 4): 6.37 K/CU MM | ANC Max ([2]; Day 8): 9.32 K/CU MM | ANC Mean (SD) ([2]; Day 8): 5.96 K/CU MM | ANC Med ([2]; Day 8): 5.22 K/CU MM | ANC Min ([2]; Day 8): 3.34 K/CU MM | Platelets Max ([2]; Day 8): 396.20 K/CU MM | Platelets Mean (SD) ([2]; Day 8): 310.13 K/CU MM | Platelets Med ([2]; Day 8): 357.20 K/CU MM | Platelets Min ([2]; Day 8): 185.60 K/CU MM | WBC Max ([2]; Day 8): 12.06 K/CU MM | WBC Mean (SD) ([2]; Day 8): 9.08 K/CU MM | WBC Med ([2]; Day 8): 8.63 K/CU MM | WBC Min ([2]; Day 8): 6.21 K/CU MM | ANC Max ([2]; Day 11): 6.57 K/CU MM | ANC Mean (SD) ([2]; Day 11): 5.29 K/CU MM | ANC Med ([2]; Day 11): 5.06 K/CU MM | ANC Min ([2]; Day 11): 4.17 K/CU MM | Platelets Max ([2]; Day 11): 447.50 K/CU MM | Platelets Mean (SD) ([2]; Day 11): 336.10 K/CU MM | Platelets Med ([2]; Day 11): 354.20 K/CU MM | Platelets Min ([2]; Day 11): 208.10 K/CU MM | WBC Max ([2]; Day 11): 10.03 K/CU MM | WBC Mean (SD) ([2]; Day 11): 8.29 K/CU MM | WBC Med ([2]; Day 11): 8.10 K/CU MM | WBC Min ([2]; Day 11): 7.27 K/CU MM | ANC Max ([2]; Day 15): 8.84 K/CU MM | ANC Mean (SD) ([2]; Day 15): 5.95 K/CU MM | ANC Med ([2]; Day 15): 6.04 K/CU MM | ANC Min ([2]; Day 15): 3.51 K/CU MM | Platelets Max ([2]; Day 15): 412.70 K/CU MM | Platelets Mean (SD) ([2]; Day 15): 298.59 K/CU MM | Platelets Med ([2]; Day 15): 302.00 K/CU MM | Platelets Min ([2]; Day 15): 184.60 K/CU MM | WBC Max ([2]; Day 15): 12.40 K/CU MM | WBC Mean (SD) ([2]; Day 15): 9.23 K/CU MM | WBC Med ([2]; Day 15): 8.49 K/CU MM | WBC Min ([2]; Day 15): 6.82 K/CU MM | ANC Max ([2]; Day 28): 7.87 K/CU MM | ANC Mean (SD) ([2]; Day 28): 5.63 K/CU MM | ANC Med ([2]; Day 28): 4.60 K/CU MM | ANC Min ([2]; Day 28): 4.41 K/CU MM | Platelets Max ([2]; Day 28): 398.80 K/CU MM | Platelets Mean (SD) ([2]; Day 28): 297.27 K/CU MM | Platelets Med ([2]; Day 28): 266.00 K/CU MM | Platelets Min ([2]; Day 28): 197.00 K/CU MM | WBC Max ([2]; Day 28): 11.15 K/CU MM | WBC Mean (SD) ([2]; Day 28): 8.31 K/CU MM | WBC Med ([2]; Day 28): 7.06 K/CU MM | WBC Min ([2]; Day 28): 6.70 K/CU MM | ANC Max ([2]; Day 42): 7.2 K/CU MM | ANC Mean (SD) ([2]; Day 42): 6.96 K/CU MM | ANC Med ([2]; Day 42): 6.96 K/CU MM | ANC Min ([2]; Day 42): 6.72 K/CU MM | Platelets Max ([2]; Day 42): 345.00 K/CU MM | Platelets Mean (SD) ([2]; Day 42): 297.10 K/CU MM | Platelets Med ([2]; Day 42): 297.10 K/CU MM | Platelets Min ([2]; Day 42): 249.20 K/CU MM | WBC Max ([2]; Day 42): 9.23 K/CU MM | WBC Mean (SD) ([2]; Day 42): 7.98 K/CU MM | WBC Med ([2]; Day 42): 7.98 K/CU MM | WBC Min ([2]; Day 42): 6.73 K/CU MM | cell counts in lungs compared to early controls ([3]; four weeks treatment): significantly reduced cell counts in lungs | cell counts in lungs compared to late controls ([3]; four weeks treatment): reduced cell counts in lungs

CO[C@H]1/C=C/O[C@@]2(C)Oc3c(C)c(O)c4c(O)c(c(/C=N/N5CCN(C)CC5)c(O)c4c3C2=O)NC(=O)/C(C)=C\C=C\[C@H](C)[C@H](O)[C@@H](C)[C@@H](O)[C@@H](C)[C@H](OC(C)=O)[C@@H]1C [Rifampin, rifampin, reference compound]
MBC ([4]; strain Atencio): 0.25 µg/mL (≈ 0.304 µM) | MIC ([4]; strain Atencio): 0.25 µg/mL (≈ 0.304 µM) | MBC ([4]; strain Erdman): 0.5 µg/mL (≈ 0.608 µM) | MIC ([4]; strain Erdman): 0.12 µg/mL (≈ 0.146 µM) | MBC ([4]; strain H37Rv): 0.5 µg/mL (≈ 0.608 µM) | MIC ([4]; strain H37Rv): 0.12 µg/mL (≈ 0.146 µM) | MIC (M. tuberculosis [5]; reference strain Kurono): 0.063 µg/mL (≈ 0.0766 µM) | MIC50 50% inhibition (M. tuberculosis [5]): 4.0 µg/mL (≈ 4.86 µM) | MIC90 90% inhibition (M. tuberculosis [5]): >128.0 µg/mL | MBC ([6]; strain Atencio): 0.5 µg/mL (≈ 0.608 µM) | MIC ([6]; strain Atencio): 0.25 µg/mL (≈ 0.304 µM) | MBC ([6]; strain Erdman): 0.5 µg/mL (≈ 0.608 µM) | MIC ([6]; strain Erdman): 0.12 µg/mL (≈ 0.146 µM) | MBC ([6]; strain H37Rv): 1.0 µg/mL (≈ 1.22 µM) | MIC ([6]; strain H37Rv): 0.25 µg/mL (≈ 0.304 µM) | reduction of bacterial load in lungs and spleens, comparison of drugs [3]: No significant differences | MIC90 (M. tuberculosis [7]): 100 µg/mL (≈ 122 µM) | MIC90 (M. avium): 100 µg/mL (≈ 122 µM)

NC(=O)c1cnccn1 [PZA, pyrazinamide]
CFUs in the spleen ([3]; rifalazil 20 mg/kg, PZA 150 mg/kg, four weeks): did not significantly reduce CFUs compared to controls

C[C@H]1COc2c(N3CCN(C)CC3)c(F)cc3c(=O)c(C(=O)O)cn1c23 [LEV]
cell counts in lungs compared to late controls ([3]; four weeks treatment): reduced cell counts in lungs

CC[C@@H](CO)NCCN[C@@H](CC)CO [EMB, ethambutol]
cell counts in lungs compared to late controls ([3]; four weeks treatment): reduced cell counts in lungs

CO[C@H]1/C=C/O[C@@]2(C)Oc3c(C)c(O)c4c(c3C2=O)C2=NC3(CCN(CC(C)C)CC3)NC2=C(NC(=O)/C(C)=C\C=C\[C@H](C)[C@H](O)[C@@H](C)[C@@H](O)[C@@H](C)[C@H](OC(C)=O)[C@@H]1C)C4=O [Rifabutin, rifabutin, reference compound]
adverse reactions at high doses [8]: generalized arthralgia and uveitis occurred | incidence of neutropenia [8]: significantly greater than in patients treated with placebo | skin discoloration [8]: < 1% | MIC (M. tuberculosis [5]; reference strain H37Rv): 0.016 µg/mL (≈ 0.0189 µM) | MIC (M. tuberculosis [5]; reference strain Kurono): 0.016 µg/mL (≈ 0.0189 µM) | MIC50 50% inhibition (M. tuberculosis [5]): 0.063 µg/mL (≈ 0.0744 µM) | MIC90 90% inhibition (M. tuberculosis [5]): 8.0 µg/mL (≈ 9.44 µM) | reduction of bacterial load in lungs and spleens, comparison of drugs [3]: No significant differences

CC1(C)S[C@@H]2[C@H](NC(=O)[C@H](N)c3ccc(O)cc3)C(=O)N2[C@H]1C(=O)O [amoxicillin, reference compound]
decrease in CFU/mL after 24 hours (Helicobacter pylori): 1 log
